# ChEMBL document CHEMBL5042486, “Discovery and Preclinical Characterization of BIIB091, a Reversible, Selective BTK Inhibitor for the Treatment of Multiple Sclerosis” (J Med Chem, 2022)
# Assays:
# [1] = Kinetic aqueous solubility of the compound in pH 6.8; format: physicochemical; conditions: read-out: Kinetic_solubility
# [2] = Kinetic aqueous solubility of the compound in pH 3; format: physicochemical; conditions: read-out: Kinetic_solubility
# [3] = biological target: T1, Tyrosine-protein kinase BTK (Homo sapiens, UniProt Q06187); experiment: Inhibition of BTK phosphorylation in human whole blood assessed as reduction in BTK phosphorylation incubated for 30 mins; format: tissue-based
# T1 sequence (Q06187 whole entry): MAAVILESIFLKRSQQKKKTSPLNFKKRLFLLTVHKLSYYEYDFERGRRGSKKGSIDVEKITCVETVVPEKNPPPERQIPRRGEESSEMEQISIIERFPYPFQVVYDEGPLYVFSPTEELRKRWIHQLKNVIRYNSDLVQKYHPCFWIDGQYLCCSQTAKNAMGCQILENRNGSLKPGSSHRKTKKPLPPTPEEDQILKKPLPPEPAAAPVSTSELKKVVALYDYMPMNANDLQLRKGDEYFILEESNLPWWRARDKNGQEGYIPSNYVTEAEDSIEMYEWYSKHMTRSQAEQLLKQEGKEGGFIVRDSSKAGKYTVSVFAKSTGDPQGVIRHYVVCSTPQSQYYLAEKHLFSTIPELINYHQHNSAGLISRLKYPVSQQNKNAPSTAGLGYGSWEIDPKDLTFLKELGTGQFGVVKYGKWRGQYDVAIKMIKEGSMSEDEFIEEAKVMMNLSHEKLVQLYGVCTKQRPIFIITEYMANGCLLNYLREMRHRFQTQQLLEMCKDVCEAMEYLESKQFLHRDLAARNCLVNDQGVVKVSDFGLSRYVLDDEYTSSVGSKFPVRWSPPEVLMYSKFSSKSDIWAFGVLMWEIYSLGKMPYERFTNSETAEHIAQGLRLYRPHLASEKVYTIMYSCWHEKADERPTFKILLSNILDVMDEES
# [4] = biological target: T1, Tyrosine-protein kinase BTK; experiment: Inhibition of human BTK using fluorescein-labeled polyGAT peptide as substrate incubated for 30 mins by FRET assay
# [5] = Lipophilicity, logD of the compound at pH 7.6 by shake flask assay; format: physicochemical; conditions: buffer
# [6] = Protein binding in human plasma assessed as unbound fraction at 2 uM by rapid equilibrium dialysis method; format: ADME, cell-free
# [7] = Kinetic solubility of the compound at pH 1.5 by shake flask method; format: physicochemical; conditions: buffer, read-out: Kinetic_solubility
# [8] = Dissociation constant, pKa of the compound; format: physicochemical
# [9] = Clearance in Beagle dog at 1 mg/kg, iv; format: ADME, organism-based, Canis lupus familiaris; conditions: in vivo
# [10] = Half life in Beagle dog at 5 mg/kg, po; format: ADME, organism-based, Canis lupus familiaris; conditions: in vivo
# [11] = Cmax in Sprague-Dawley rat at 5 mg/kg, po; format: ADME, organism-based; design: route oral, dose 5 mg/kg; conditions: in vivo
# [12] = Clearance in Sprague-Dawley rat at 1 mg/kg, iv; format: ADME, organism-based; conditions: in vivo
# [13] = Cmax in Beagle dog at 5 mg/kg, po; format: ADME, organism-based, Canis lupus familiaris; design: route oral, dose 5 mg/kg; conditions: in vivo
# [14] = Solubility of the compound in simulated gastric fluid at pH 1.6; format: physicochemical
# [15] = Oral bioavailability in Sprague-Dawley rat at 5 mg/kg; format: ADME, organism-based; conditions: in vivo
# [16] = Volume of distribution at steady state in Beagle dog at 1 mg/kg, iv; format: ADME, organism-based, Canis lupus familiaris; conditions: in vivo, read-out: Vdss
# [17] = AUC in Beagle dog at 5 mg/kg, po; format: ADME, organism-based, Canis lupus familiaris; design: dose 5 mg/kg; conditions: in vivo
# [18] = Solubility of the compound in FeSIF at pH 5.9; format: physicochemical
# [19] = Solubility of the compound in FaSIF at pH 6.5; format: physicochemical
# [20] = Clearance in Beagle dog assessed as hepatic blood flow at 1 mg/kg, iv; format: ADME, organism-based, Canis lupus familiaris, Liver; conditions: in vivo
# [21] = Volume of distribution at steady state in Sprague-Dawley rat at 1 mg/kg, iv; format: ADME, organism-based; conditions: in vivo, read-out: Vdss
# [22] = Half life in Sprague-Dawley rat at 5 mg/kg, po; format: ADME, organism-based; conditions: in vivo
# [23] = Oral bioavailability in Beagle dog at 5 mg/kg; format: ADME, organism-based, Canis lupus familiaris; conditions: in vivo
# [24] = Kinetic solubility of the compound at pH 7.5 by shake flask method; format: physicochemical; conditions: buffer, read-out: Kinetic_solubility
# [25] = Clearance in Sprague-Dawley rat assessed as hepatic blood flow at 1 mg/kg, iv; format: ADME, organism-based, Liver; conditions: in vivo
# [26] = AUC in Sprague-Dawley rat at 5 mg/kg, po; format: ADME, organism-based; design: dose 5 mg/kg; conditions: in vivo
# [27] = Protein binding in rat plasma assessed as unbound fraction at 2 uM by rapid equilibrium dialysis method; format: ADME, cell-free
# [28] = biological target: Cytochrome P450 3A4 (Homo sapiens, UniProt P08684); experiment: Inhibition of CYP3A4 (unknown origin); format: ADME
# Sequence of Cytochrome P450 3A4 (P08684 whole entry): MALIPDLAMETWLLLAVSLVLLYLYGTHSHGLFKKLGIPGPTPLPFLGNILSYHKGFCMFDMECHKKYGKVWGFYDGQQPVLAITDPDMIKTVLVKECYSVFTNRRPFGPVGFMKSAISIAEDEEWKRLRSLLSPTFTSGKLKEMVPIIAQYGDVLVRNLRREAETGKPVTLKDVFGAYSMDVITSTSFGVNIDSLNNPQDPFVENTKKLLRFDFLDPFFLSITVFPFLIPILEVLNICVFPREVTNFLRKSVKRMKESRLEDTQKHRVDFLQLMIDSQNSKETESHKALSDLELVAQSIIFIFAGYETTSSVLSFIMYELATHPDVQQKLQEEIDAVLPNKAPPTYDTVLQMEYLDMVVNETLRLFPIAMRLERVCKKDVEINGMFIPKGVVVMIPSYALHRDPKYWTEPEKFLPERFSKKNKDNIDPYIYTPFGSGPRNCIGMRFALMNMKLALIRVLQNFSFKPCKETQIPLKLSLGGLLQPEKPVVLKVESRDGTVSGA
# [29] = biological target: Cytochrome P450 2C9 (Homo sapiens, UniProt P11712); experiment: Inhibition of CYP2C9 (unknown origin); format: ADME
# Sequence of Cytochrome P450 2C9 (P11712 whole entry): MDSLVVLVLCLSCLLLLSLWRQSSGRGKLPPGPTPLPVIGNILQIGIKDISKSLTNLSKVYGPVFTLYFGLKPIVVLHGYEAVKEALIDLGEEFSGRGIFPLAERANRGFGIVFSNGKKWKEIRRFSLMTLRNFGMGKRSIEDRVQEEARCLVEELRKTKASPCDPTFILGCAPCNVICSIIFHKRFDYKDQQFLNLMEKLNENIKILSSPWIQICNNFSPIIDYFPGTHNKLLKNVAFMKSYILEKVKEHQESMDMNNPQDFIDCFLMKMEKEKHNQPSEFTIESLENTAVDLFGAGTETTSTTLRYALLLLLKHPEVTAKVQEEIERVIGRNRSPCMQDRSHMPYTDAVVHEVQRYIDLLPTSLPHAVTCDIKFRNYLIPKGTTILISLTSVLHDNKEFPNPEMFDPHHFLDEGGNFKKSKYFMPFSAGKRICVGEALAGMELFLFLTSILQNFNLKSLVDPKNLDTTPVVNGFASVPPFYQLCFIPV
structure (smiles),measurement,setting,value
Cc1c(CNC(=O)N2CC(OC(C)C)C2)ccc(-c2ccnc(Nc3cnn(C)c3)n2)c1F,solubility kinetic,[1],> 10 µg/mL
same,solubility kinetic,[2],> 10 µg/mL
Cc1c(NC(=O)c2cc3c(s2)CCCC3)cccc1-c1cn(C)c(=O)c(Nc2ccc(C3CN(C)CC(=O)N3C)cc2)n1 (stereo unspecified),IC50,[3],150 nM
same,IC50,[4],1 nM
Cn1cc(Nc2nccc(-c3ccc4c(c3)CNCC[C@H]4NC(=O)c3cn(C(C)(C)C)nn3)n2)cn1,logD,[5],2.9
same,solubility kinetic,[1],> 50 µg/mL
same,fraction unbound at 2 µM,[6],0.18
same,solubility kinetic,[7],> 50 µg/mL
Cc1cc(-c2ccnc(Nc3cnn(C)c3)n2)c(F)cc1CNC(=O)N1CC(OC(C)C)C1,IC50,[4],> 10000 nM
CN1CC[C@@H](NC(=O)c2cn(C(C)(C)C)nn2)c2ccc(-c3ccnc(Nc4cnn(C)c4)n3)cc2C1,logD,[5],1
same,solubility kinetic,[1],> 50 µg/mL
same,pKa,[8],4
same,IC50,[4],0.8 nM
same,fraction unbound at 2 µM,[6],0.19
same,solubility kinetic,[7],> 50 µg/mL
CC(C)OC1CN(C(=O)N[C@@H]2CCCCc3cc(-c4ccnc(Nc5cnn(C)c5)n4)ccc32)C1,clearance,[9],4 mL/min/kg
same,half-life,[10],2.4 h
same,Cmax,[11],2460 ng/mL
same,clearance,[12],6 mL/min/kg
same,Cmax,[13],3710 ng/mL
same,solubility,[14],> 15000 µg/mL
same,logD,[5],3.6
same,bioavailability,[15],69%
same,Vd,[16],1.6 L/kg
same,AUC,[17],14200 ng·h/mL
same,solubility,[18],170 µg/mL
same,fraction unbound at 2 µM,[6],0.07
same,solubility,[19],80 µg/mL
same,QH,[20],31%
same,Vd,[21],0.6 L/kg
same,half-life,[22],1.3 h
same,bioavailability,[23],92%
same,solubility kinetic,[24],> 30 µg/mL
same,QH,[25],11%
same,AUC,[26],6940 ng·h/mL
same,solubility kinetic,[7],> 30 µg/mL
Cc1c(-c2c(F)cc(C(N)=O)c3[nH]c4c(c23)CC[C@H](C(C)(C)O)C4)cccc1-n1c(=O)c2cccc(F)c2n(C)c1=O [BMS-986142],IC50,[3],110 nM
same,IC50,[4],1 nM
Cn1cc(Nc2nccc(-c3ccc4c(c3)CCCC[C@H]4NC(=O)c3cn(C(C)(C)C)nn3)n2)cn1,logD,[5],3.5
same,solubility kinetic,[1],< 20 µg/mL
same,fraction unbound at 2 µM,[27],0.002
same,IC50,[28],6400 nM
same,fraction unbound at 2 µM,[6],0.011
same,IC50,[29],2000 nM
same,solubility kinetic,[7],> 50 µg/mL
CC(C)OC1CN(C(=O)NCc2ccc(-c3ccnc(Nc4cnn(C)c4)n3)cc2Cl)C1,solubility kinetic,[1],< 30 µg/mL
same,solubility kinetic,[2],< 30 µg/mL
CC(C)OC1CN(C(=O)NC2CCCc3cc(-c4ccnc(Nc5cnn(C)c5)n4)ccc32)C1 (stereo unspecified),solubility kinetic,[1],> 30 µg/mL
same,solubility kinetic,[2],> 30 µg/mL
CC(C)OC1CN(C(=O)NCc2ccc(-c3ccnc(Nc4cnn(C)c4)n3)cc2C(F)(F)F)C1,solubility kinetic,[1],< 10 µg/mL
same,solubility kinetic,[2],< 10 µg/mL
C=CC(=O)Nc1cccc(Oc2nc(Nc3ccc(N4CCN(C)CC4)cc3)nc3ccoc23)c1 [POSELTINIB],IC50,[4],1 nM
Cn1cc(Nc2nccc(-c3ccc4c(c3)CCCC[C@H]4NC(=O)c3nc(C(C)(C)C)no3)n2)cn1,logD,[5],2.8
same,solubility kinetic,[1],< 20 µg/mL
same,fraction unbound at 2 µM,[27],0.009
same,IC50,[28],2600 nM
same,fraction unbound at 2 µM,[6],0.008
same,IC50,[29],400 nM
same,solubility kinetic,[7],> 50 µg/mL
CN1CCc2cc(-c3ccnc(Nc4cnn(C)c4)n3)ccc2[C@H](NC(=O)c2cn(C(C)(C)C)nn2)C1,logD,[5],2.9
same,fraction unbound at 2 µM,[6],0.07
same,solubility kinetic,[7],> 50 µg/mL
Cn1cc(Nc2nccc(-c3ccc4c(c3)CCNC[C@H]4NC(=O)c3cn(C(C)(C)C)nn3)n2)cn1,logD,[5],2.3
same,solubility kinetic,[1],> 50 µg/mL
same,fraction unbound at 2 µM,[6],0.12
same,solubility kinetic,[7],> 50 µg/mL
Cn1cc(Nc2nccc(-c3ccc4c(c3)CCCC[C@H]4NC(=O)c3nnc(C(C)(C)C)o3)n2)cn1,logD,[5],2.3
same,solubility kinetic,[1],< 20 µg/mL
same,fraction unbound at 2 µM,[27],0.008
same,IC50,[28],> 10000 nM
same,fraction unbound at 2 µM,[6],0.041
same,IC50,[29],4000 nM
same,solubility kinetic,[7],> 50 µg/mL
Cc1cc(-c2ccnc(Nc3cnn(C)c3)n2)ccc1CNC(=O)N1CC(OC(C)C)C1,half-life,[10],2.1 h
same,logD,[5],2.7
same,solubility kinetic,[1],< 30 µg/mL
same,fraction unbound at 2 µM,[6],0.06
same,half-life,[22],1.2 h
same,solubility kinetic,[24],> 30 µg/mL
same,solubility kinetic,[2],> 30 µg/mL
same,solubility kinetic,[7],< 30 µg/mL
COCCN1CC[C@@H](NC(=O)c2cn(C(C)(C)C)nn2)c2ccc(-c3ccnc(Nc4cnn(C)c4)n3)cc2C1,logD,[5],2.9
same,solubility kinetic,[1],> 50 µg/mL
same,pKa,[8],3.1
same,fraction unbound at 2 µM,[6],0.1
same,solubility kinetic,[7],> 50 µg/mL
